The values that follow come from US9784746B2, “Method for studying transport of an agent across a bilayer membrane in bioanalytical sensor applications” (Bio-Rad Laboratories, Inc., priority 2008, dated 2017).

A short description of data set [1]: Membrane transport of ions across gramicidin-containing liposomes (SPR). It is filed as physicochemical. To be noted: gramicidin incorporated for K+ co-transport; FIG. 7. From the text: Information of this type is of high relevance in studies on how, for example, drugs influence the permeability of cell-membranes. Both passive and membrane-protein mediated transfer of uncharged solutes is of high biological and pharmaceutical relevance. However, for a method like this to be generically applicable for any type of membrane transport reaction, also ion translocation should be possible to measure, which is today typically measured using patch-clamp based assays. FIG. 7 illustrates membrane transport of iodide (˜10 s) and chloride (˜200 s) ions, in excellent agreement with literature data. Note that gramicidin was incorporated into the liposomes in order to ensure co-transport of counter ions (K+), thus prohibiting the establishment of an electrostatic transmembrane potential that would otherwise restrict the unhindered transport of anions.

The nature of data set [2]: Glycerol transport across liposome membrane versus cholesterol content (SPR). It is filed as physicochemical. The method, then:
At first 70 nm liposomes were provided in accordance with Example 1. […] Also shown in FIG. 4b (dashed curve) is an identical rinsing step without immobilized liposomes, illustrating that the time constant of the fluidic exchange is faster than 100 ms, which is sufficient to temporally resolve these transport measurements. The rate of glycerol release was examined in a temperature interval from 8 to 22° C. […] In agreement with expectations, the rate of transport across the lipid membrane increases with increasing temperature, and Arrhenius plots display a linear dependence between ln(1/) and 1/T, yielding activation energies in excellent agreement with literature data for the three solutes (glycerol, urea and hydroxyurea) investigated, see FIG. 5b.
70 nm liposomes containing 40% cholesterol were provided in accordance with Example 1. Binding of the liposomes followed by repeated injection cyclodextrin, which removes cholesterol from the lipid bilyaer of the liposomes is shown in FIG. 6a. The SPR response is proportional to the interfacial refractive index, which makes it possible to quantify the removal of cholesterol. […]
Each injection of cyclodextrin (FIG. 6a) was followed by an injection pulse of glycerol, which enabled the time constant of glycerol transport versus cholesterol content to be quantified, ranging from around 7 s at 40% cholesterol to 1 s at 14% cholesterol, see FIG. 6b. […]

Data set [3] can be described thus: Melittin binding to tethered POPC liposomes (Biacore SPR). The method, then:
Liposomes were made by first evaporating the solvent, chloroform, from the POPC lipids using a flow of nitrogen gas. The dried lipids were then kept under the flow of nitrogen gas for at least one hour after which HEPES-2 was added to yield a 4 mg/ml concentration of POPC. The dissolved POPC lipids were vortexed for at least 30 min to yield multi-laminar liposomes. Uni-laminar liposomes were produced using a mini extruder and polycarbonate membranes with pore size of 50 nm from Avanti Polar Lipids® with a 50 nm pore size. […] The liposomes were stored under nitrogen gas at 4° C. until use (within 2 days).
A mixture (300 μl) of HS-PEG (200 μg/ml) and HS-PEG-Biotin (20 μg/ml), dissolved in HEPES-2, were injected over the Biacore® Au sensor chip at a flow rate of 5 μl/min. Then a mixture (150 μl) of NeutrAvidin (40 μg/ml) and Biotin-DNA (0.7 μM) was injected and bound to HS-PEG-Biotin at the surface.
POPC liposomes (2 mg/ml, in HEPES-2) containing cholesterol-DNA tags (3 DNA tags per liposome) were injected at a flow rate of 5 μl/min. The end of the DNA-part of the cholesterol-DNA tag is single-stranded and complementary in sequence to the Biotin-DNA at the surface enabling tethering of the liposomes to the sensor surface.
The reversible binding of melittin was measured in the Biacore® instrument directly after the tethering of POPC liposomes was finished. Melittin solutions at a concentration of 0.5-40 μM in HEPES-2 were injected in sequence. During injection the melittin molecules bind to the liposomes and after the injection is terminated, running buffer (HEPES-2) flows over the surface and melittin dissociates. After the dissociation was complete a new melittin solution of different concentration was injected.
Melittin solutions of various concentrations (0.5-40 μM) were injected over the bound liposomes in the Biacore® instrument at 5 μl/min. The change in response (RU) as a function of time (t) was fitted to RU=RU0+RU1*(1−exp(−t/τ1))+RU2*(1−exp(−t/τ2)). However, the change in RU during the injection of 0.5 μM melittin could be described using only one exponential (i.e. RU2=0). It is known that high concentrations of melittin can rupture cells and liposomes. Unspecific binding (i.e. binding to the biosensor surface without liposomes) of melittin was small, less than 5% of the binding of melittin to the liposome membrane surface (data not shown).
In general terms: Surface plasmon resonance follows binding to a sensor surface in real time, without labels.

The nature of data set [4]: Melittin pore mediated sucrose uptake into tethered liposomes (SPR refractive index). It is filed as physicochemical. The procedure:
After tethering of NeutrAvidin/Biotin-DNA the following injections were made in sequential order; 0.1 M sucrose, 2 mg/ml cholesterol-DNA tagged POPC-liposomes, 0.1 M sucrose, 40 μM melittin, 0.1 M sucrose, 0.1 M sucrose, 0.1 M sucrose. All samples were dissolved in HEPES-2.
A simple method for real-time and label-free uptake measurements of analytes across membranes at a biosensor surface would be of great value when investigating for example membrane transporters. Here we wanted to test if it was possible to measure the uptake of an analyte, sucrose, through the melittin pore by simply detecting the change in refractive index of the solution inside the liposome caused by the analyte as it is taken up.
Adding sucrose changes the refractive index of the solution in the detection volume, i.e. the volume corresponding to the evanescent field above the sensor surface, which is manifested as a shift in RU. […]
The amplitude of the uptake decrease from S3 to S5, which is explained by a decreasing number of liposomes having pores. […] The expected RU of the 7400 sucrose molecules (0.1 M) inside the liposome can be calculated from the obtained response of immobilizing the liposome itself (RU=6790). […] Since only ˜85% of the liposomes have pores the expected value is 480/0.85≈560 RU, which is in good agreement with the measured response of 530 RU from the S3 injection.

A short description of data set [5]: Cyclodextrin removal of cholesterol from liposome bilayer (SPR). To be noted: after seven injections; start 40% cholesterol. From the text:
70 nm liposomes containing 40% cholesterol were provided in accordance with Example 1. Binding of the liposomes followed by repeated injection cyclodextrin, which removes cholesterol from the lipid bilyaer of the liposomes is shown in FIG. 6a. The SPR response is proportional to the interfacial refractive index, which makes it possible to quantify the removal of cholesterol. After seven injections of cyclodextrin, the cholesterol content was reduced to 14%.

Where [6] appears, read: outer membrane, fast phase, fit of k1 vs [Mel]B, 0.5-40 μM, HEPES-2.

For the molecule `Cl` [chloride], the membrane transport time in data set [1] is given as about 200 s. Turning to `OCC(O)CO` [glycerol], the “time constant of glycerol transport” value in data set [2] (14% cholesterol) was about 1 s; in data set [2] (40% cholesterol), “around 7 s”. On to `I` [iodide], for which, in data set [1], the membrane transport time is on record as about 10 s. For the molecule `CC[C@H](C)[C@H](NC(=O)CN)C(=O)NCC(=O)N[C@@H](C)C(=O)N[C@H](C(=O)N[C@@H](CC(C)C)C(=O)N[C@@H](CCCCN)C(=O)N[C@H](C(=O)N[C@@H](CC(C)C)C(=O)N[C@H](C(=O)N[C@H](C(=O)NCC(=O)N[C@@H](CC(C)C)C(=O)N1CCC[C@H]1C(=O)N[C@@H](C)C(=O)N[C@@H](CC(C)C)C(=O)N[C@H](C(=O)N[C@@H](CO)C(=O)N[C@@H](Cc1c[nH]c2ccccc12)C(=O)N[C@H](C(=O)N[C@@H](CCCCN)C(=O)N[C@@H](CCCNC(=N)N)C(=O)N[C@@H](CCCCN)C(=O)N[C@@H](CCCNC(=N)N)C(=O)N[C@@H](CCC(N)=O)C(=O)N[C@@H](CCC(N)=O)C(N)=O)[C@@H](C)CC)[C@@H](C)CC)[C@@H](C)O)[C@@H](C)O)C(C)C)C(C)C` [melittin], in data set [3] (linear fit of k2 vs [Mel]B), the “k+2 (apparent, slower kinetic phase, binding to inner membrane)” value is 56 M⁻¹ s⁻¹ and the “k−2 (slower kinetic phase, binding to inner membrane)” value worked out at 0.0046 s⁻¹. In data set [3] (setting [6]), the “microscopic off-rate k−1 of melittin with the liposome membrane surface” value was 0.032 s⁻¹ and the “microscopic on-rate k+1 of melittin with the liposome membrane surface” value turned out to be 3684 M⁻¹ s⁻¹. In the case of `OC[C@H]1O[C@@](CO)(O[C@H]2O[C@H](CO)[C@@H](O)[C@H](O)[C@H]2O)[C@@H](O)[C@@H]1O` [sucrose], the “decay time for uptake of sucrose τ3” value in data set [4] (0.1 M sucrose after 40 μM melittin (S3), estimated from FIG. 3) was “≈ 20 sec”. Moreover, the “number of sucrose molecules that cross the membrane per liposome” value in data set [4] (in ˜20 sec, inside concentration 0.1 M) is recorded as about 7400. cyclodextrin: the “cholesterol content of liposomes after cyclodextrin” value in data set [5] stood at 14%.
